Reference: ChEMBL document CHEMBL4602695, “Discovery and SARs of 5-Chloro-N4-phenyl-N2-(pyridin-2-yl)pyrimidine-2,4-diamine Derivatives as Oral Available and Dual CDK 6 and 9 Inhibitors with Potent Antitumor Activity” (J Med Chem, 2020)
Values after ≈ are worked out from the molar mass of the structure shown.

Legend:
[1] = system: MDA-MB-231; test: Cell cycle arrest in human MDA-MB-231 cells assessed as accumulation at G2/M phase at 8 uM measured after 48 hrs by propidium iodide staining based flow cytometry (reference value: 15.9%); type: functional
[2] = AUC (0 to infinity) in Sprague-Dawley rat at 2 mg/kg, iv by LC-MS/MS analysis; type: ADME, organism-based; set-up: dose 2 mg/kg, route intravenous, time infinity; details: in vivo
[3] = system: MDA-MB-231; test: Induction of apoptosis in human MDA-MB-231 cells assessed as viable cells at 12 uM measured after 48 hrs by Annexin V-FITC/propidium iodide staining based flow cytometry (95.8%); type: functional; details: MDA-MB-231, 48 h, read-out: Activity
[4] = system: MDA-MB-231; test: Induction of apoptosis in human MDA-MB-231 cells assessed as early apoptotic cells at 8 uM measured after 48 hrs by Annexin V-FITC/propidium iodide staining based flow cytometry (0.877%); type: functional
[5] = Toxicity in ICR mouse assessed as toxic reaction at 500 mg/kg, po administered as single dose measured for 7 days; type: organism-based; details: in vivo, 168 h
[6] = Cmax in Sprague-Dawley rat at 10 mg/kg, po by LC-MS/MS analysis; type: ADME, organism-based; set-up: dose 10 mg/kg, route oral; details: in vivo
[7] = system: MDA-MB-231; test: Cell cycle arrest in human MDA-MB-231 cells assessed as accumulation at G0/G1 phase at 12 uM measured after 48 hrs by propidium iodide staining based flow cytometry (reference value: 57.65%); type: functional
[8] = Half life in Sprague-Dawley rat at 10 mg/kg, po by LC-MS/MS analysis; type: ADME, organism-based; details: in vivo
[9] = Half life in mouse hepatocytes by LC-MS/MS analysis; type: ADME, cell-based, Hepatocyte
[10] = system: MDA-MB-231; test: Cell cycle arrest in human MDA-MB-231 cells assessed as accumulation at G2/M phase at 12 uM measured after 48 hrs by propidium iodide staining based flow cytometry (reference value: 15.9%); type: functional
[11] = system: MDA-MB-231; test: Induction of apoptosis in human MDA-MB-231 cells assessed as necrotic cells at 12 uM measured after 48 hrs by Annexin V-FITC/propidium iodide staining based flow cytometry (0.498%); type: functional
[12] = Clearance in mouse hepatocytes assessed per million cells by LC-MS/MS analysis; type: ADME, cell-based, Hepatocyte; details: read-out: CLH
[13] = biological target: CDK9/cyclin T1 (Homo sapiens, UniProt P50750); test: Binding affinity to recombinant full-length GFP-fused CDK9/His-tagged cyclin T1 (unknown origin) expressed in HEK293T cells measured after 30 mins by microscale thermophoresis method; set-up: species or system HEK-293T
Sequence of CDK9/cyclin T1 (O60563 whole entry, the tested form may be a part): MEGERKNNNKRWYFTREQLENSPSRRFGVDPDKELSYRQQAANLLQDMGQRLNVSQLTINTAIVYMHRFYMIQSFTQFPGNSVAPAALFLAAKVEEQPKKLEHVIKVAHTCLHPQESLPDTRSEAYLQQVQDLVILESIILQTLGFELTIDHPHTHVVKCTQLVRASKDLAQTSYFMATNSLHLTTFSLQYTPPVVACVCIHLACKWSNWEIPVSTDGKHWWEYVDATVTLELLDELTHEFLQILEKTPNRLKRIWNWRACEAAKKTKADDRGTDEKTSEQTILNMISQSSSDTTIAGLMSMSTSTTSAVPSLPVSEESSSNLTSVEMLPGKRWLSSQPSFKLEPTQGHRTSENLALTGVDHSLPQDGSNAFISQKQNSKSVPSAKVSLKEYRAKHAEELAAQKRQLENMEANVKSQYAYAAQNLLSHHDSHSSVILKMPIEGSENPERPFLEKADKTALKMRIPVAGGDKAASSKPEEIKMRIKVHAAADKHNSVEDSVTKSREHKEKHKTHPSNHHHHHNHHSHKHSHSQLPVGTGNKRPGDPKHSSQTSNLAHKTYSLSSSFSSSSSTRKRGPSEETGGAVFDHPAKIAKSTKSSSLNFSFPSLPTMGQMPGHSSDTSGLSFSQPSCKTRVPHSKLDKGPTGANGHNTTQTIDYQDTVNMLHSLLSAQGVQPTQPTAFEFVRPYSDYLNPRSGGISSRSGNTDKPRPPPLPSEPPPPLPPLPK
Sequence of CDK9/cyclin T1 (P50750 whole entry, the tested form may be a part): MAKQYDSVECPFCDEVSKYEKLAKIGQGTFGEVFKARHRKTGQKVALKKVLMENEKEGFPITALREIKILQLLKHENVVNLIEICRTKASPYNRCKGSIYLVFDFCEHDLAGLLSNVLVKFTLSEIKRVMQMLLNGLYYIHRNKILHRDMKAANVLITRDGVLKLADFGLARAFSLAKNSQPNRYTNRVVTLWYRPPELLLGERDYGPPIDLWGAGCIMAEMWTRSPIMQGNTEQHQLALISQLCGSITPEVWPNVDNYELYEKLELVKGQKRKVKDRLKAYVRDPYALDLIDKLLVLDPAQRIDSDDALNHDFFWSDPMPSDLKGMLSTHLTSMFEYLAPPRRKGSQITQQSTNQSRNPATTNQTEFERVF

[14] = biological target: CDK2/Cyclin A2 (Homo sapiens, UniProt P24941); set-up: species or system Sf9
[15] = Stability in human hepatocytes assessed as parent compound remaining after 120 mins by LC-MS/MS analysis; type: ADME, cell-based, Hepatocyte; details: read-out: Stability
[16] = system: MDA-MB-231; test: Antiproliferative activity against human MDA-MB-231 cells assessed as inhibition of cell proliferation measured after 48 hrs by CCK8 assay; type: functional, cell-based; details: MDA-MB-231, 48 h
[17] = system: MDA-MB-231; test: Induction of apoptosis in human MDA-MB-231 cells assessed as late apoptotic cells at 12 uM measured after 48 hrs by Annexin V-FITC/propidium iodide staining based flow cytometry (2.78%); type: functional
[18] = system: MDA-MB-231; test: Cell cycle arrest in human MDA-MB-231 cells assessed as accumulation at S phase at 12 uM measured after 48 hrs by propidium iodide staining based flow cytometry (reference value: 26.45%); type: functional
[19] = system: MDA-MB-231; test: Cell cycle arrest in human MDA-MB-231 cells assessed as accumulation at G0/G1 phase at 8 uM measured after 48 hrs by propidium iodide staining based flow cytometry (reference value: 57.65%); type: functional
[20] = system: MDA-MB-231; test: Induction of apoptosis in human MDA-MB-231 cells assessed as necrotic cells at 8 uM measured after 48 hrs by Annexin V-FITC/propidium iodide staining based flow cytometry (0.498%); type: functional
[21] = biological target: T1, CDK6/cyclin D3 (Homo sapiens, UniProt Q00534); test: Binding affinity to recombinant full-length GFP-fused CDK6/His-tagged cyclin D3 (unknown origin) expressed in HEK293T cells measured after 30 mins by microscale thermophoresis method; set-up: species or system HEK-293T
T1 sequence (P30281 whole entry, the tested form may be a part): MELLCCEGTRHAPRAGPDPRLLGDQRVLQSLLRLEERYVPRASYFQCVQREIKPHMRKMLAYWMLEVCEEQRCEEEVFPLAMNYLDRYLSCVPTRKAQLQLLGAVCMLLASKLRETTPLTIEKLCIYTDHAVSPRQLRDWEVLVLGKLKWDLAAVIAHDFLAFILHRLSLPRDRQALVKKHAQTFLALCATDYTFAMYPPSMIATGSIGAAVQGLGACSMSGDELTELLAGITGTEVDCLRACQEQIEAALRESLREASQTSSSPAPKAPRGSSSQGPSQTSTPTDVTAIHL
T1 sequence (Q00534 whole entry, the tested form may be a part): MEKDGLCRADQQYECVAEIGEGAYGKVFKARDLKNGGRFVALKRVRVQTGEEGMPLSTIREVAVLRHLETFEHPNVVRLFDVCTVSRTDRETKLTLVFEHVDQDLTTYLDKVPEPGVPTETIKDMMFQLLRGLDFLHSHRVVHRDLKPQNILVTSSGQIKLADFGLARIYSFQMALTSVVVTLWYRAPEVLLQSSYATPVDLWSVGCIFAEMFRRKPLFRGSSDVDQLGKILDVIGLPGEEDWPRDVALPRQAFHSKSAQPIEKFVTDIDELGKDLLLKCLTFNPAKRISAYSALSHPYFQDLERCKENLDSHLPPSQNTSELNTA

[22] = system: MCF7; test: Antiproliferative activity against human MCF7 cells assessed as inhibition of cell proliferation measured after 48 hrs by CCK8 assay; type: functional, cell-based; details: MCF7, 48 h
[23] = Oral bioavailability in Sprague-Dawley rat at 10 mg/kg by LC-MS/MS analysis; type: ADME, organism-based; details: in vivo
[24] = Clearance in human hepatocytes assessed per million cells by LC-MS/MS analysis; type: ADME, cell-based, Hepatocyte; details: read-out: CLH
[25] = Thermodynamic equilibrium solubility in normal saline by HPLC-based shake flask method; type: physicochemical; details: read-out: Therm_solubility
[26] = Apparent permeability in human Caco2 cells measured after 90 mins by LC-MS/MS analysis; type: ADME, cell-based; details: Caco-2
[27] = system: MDA-MB-231; test: Induction of apoptosis in human MDA-MB-231 cells assessed as late apoptotic cells at 8 uM measured after 48 hrs by Annexin V-FITC/propidium iodide staining based flow cytometry (2.78%); type: functional
[28] = biological target: T1, CDK6/cyclin D3; set-up: species or system Sf9
[29] = AUC (0 to infinity) in Sprague-Dawley rat at 10 mg/kg, po by LC-MS/MS analysis; type: ADME, organism-based; set-up: dose 10 mg/kg, time infinity, route oral; details: in vivo
[30] = system: MDA-MB-231; test: Induction of apoptosis in human MDA-MB-231 cells assessed as viable cells at 8 uM measured after 48 hrs by Annexin V-FITC/propidium iodide staining based flow cytometry (95.8%); type: functional; details: MDA-MB-231, 48 h, read-out: Activity
[31] = Half life in Sprague-Dawley rat at 2 mg/kg, iv by LC-MS/MS analysis; type: ADME, organism-based; details: in vivo
[32] = Octanol-water partition coefficient, log P of the compound by HPLC-based shake flask method; type: physicochemical
[33] = system: MDA-MB-231; test: Induction of apoptosis in human MDA-MB-231 cells assessed as early apoptotic cells at 4 uM measured after 48 hrs by Annexin V-FITC/propidium iodide staining based flow cytometry (0.877%); type: functional
[34] = system: MDA-MB-231; test: Induction of apoptosis in human MDA-MB-231 cells assessed as necrotic cells at 4 uM measured after 48 hrs by Annexin V-FITC/propidium iodide staining based flow cytometry (0.498%); type: functional
[35] = system: MDA-MB-231; test: Induction of apoptosis in human MDA-MB-231 cells assessed as early apoptotic cells at 12 uM measured after 48 hrs by Annexin V-FITC/propidium iodide staining based flow cytometry (0.877%); type: functional
[36] = Cytotoxicity against human L02 cells assessed as inhibition of cell proliferation measured after 48 hrs by CCK8 assay; type: cell-based
[37] = system: MDA-MB-231; test: Cell cycle arrest in human MDA-MB-231 cells assessed as accumulation at G0/G1 phase at 4 uM measured after 48 hrs by propidium iodide staining based flow cytometry (reference value: 57.65%); type: functional
[38] = Toxicity in human MDA-MB-231 cells xenografted BALB/c nu/nu mouse assessed as body weight loss at 22.5 to 90 mg/kg, po administered once daily for 3 weeks and measured at 3 days interval during compound dosing; type: organism-based; details: in vivo
[39] = system: Jurkat; test: Antiproliferative activity against human Jurkat cells assessed as inhibition of cell proliferation measured after 48 hrs by CCK8 assay; type: functional, cell-based
[40] = system: MDA-MB-231; test: Cell cycle arrest in human MDA-MB-231 cells assessed as accumulation at S phase at 4 uM measured after 48 hrs by propidium iodide staining based flow cytometry (reference value: 26.45%); type: functional

CC(=O)Nc1cccc(Nc2nc(Nc3ccc(N4CCN(C)CC4)cn3)ncc2Cl)c1
Activity [1]: 8.13% | AUC(0-inf) [2]: 641 ng·h/mL | viability at 12 µM [3]: 54.9% | Activity [4]: 5.06% | Activity [5]: Non-Toxic | Cmax [6]: 101 ng/mL | Activity [7]: 50.5% | half-life [8]: 194 min | half-life [9]: 39.2 min | Activity [10]: 34.27% | Activity [11]: 2.24% | hepatocyte CLint [12]: 17.7 µL/min/1e6 cells | Kd [13]: 30 nM | IC50 [14]: > 10 µM | remaining at 2 h [15]: 40.4% | IC50 [16]: 4.01 to 8.08 µM | Activity [17]: 26.4% | Activity [18]: 15.23% | Activity [19]: 77.51% | Activity [20]: 0.766% | Kd [21]: 71 nM | IC50 [22]: 4.01 to 8.08 µM | bioavailability [23]: 28.9% | hepatocyte CLint [24]: 7.5 µL/min/1e6 cells | solubility thermodynamic [25]: 214 µg/mL (≈ 472 µM) | Papp at 1.5 h [26]: 1.7 ×10⁻⁶ cm/s | Activity [27]: 6.72% | IC50 [28]: 40.5 nM | AUC(0-inf) [29]: 926 ng·h/mL | viability at 8 µM [30]: 87.5% | half-life [31]: 106 min | logP [32]: 1.23 | Activity [33]: 2.08% | Activity [34]: 0.57% | Activity [35]: 16.4% | GI50 at 48 h [36]: > 100 µM | Activity [37]: 71.85% | Activity [38]: Non-Toxic | IC50 [39]: 4.01 to 8.08 µM | Activity [40]: 18.97%
